Experimental data taken from ChEMBL document CHEMBL2062504, “Diterpenoid alkaloids from the lateral root of Aconitum carmichaelii” (J Nat Prod, 2012).
Calls of active or inactive are those of the source.

Columns and labels:
[1] = system: A549; experiment: Cytotoxicity against human A549 cells at 10 uM after 96 hrs by MTT assay; assay type: functional, cell-based
[2] = system: WB-F344; experiment: Hepatoprotective activity against DL-galactosamine-induced cell death in rat WB-F344 cells at 10 uM incubated for 1 hr prior to DL-galactosamine-challenge measured after 24 hrs by MTT assay; assay type: functional, cell-based
[3] = system: Liver microsomes; experiment: Antioxidant activity in rat liver microsome assessed as inhibition of FeSO4-induced lipid peroxidation at 10 uM incubated for 15 mins prior to FeSO4-challenge measured after 15 mins by modified thiobarbituric acid method; assay type: functional
[4] = system: Bel-7402; experiment: Cytotoxicity against human Bel7402 cells at 10 uM after 96 hrs by MTT assay; assay type: functional, cell-based
[5] = system: HCT-8; experiment: Cytotoxicity against human HCT8 cells at 10 uM after 96 hrs by MTT assay; assay type: functional, cell-based
[6] = system: Peritoneal macrophage cell; experiment: Antiinflammatory activity in mouse peritoneal macrophages assessed as inhibition of nitric oxide production at 10 uM; assay type: functional, cell-based
[7] = system: BGC-823; experiment: Cytotoxicity against human BGC823 cells at 10 uM after 96 hrs by MTT assay; assay type: functional, cell-based
[8] = system: MCF7; experiment: Cytotoxicity against human MCF7 cells at 10 uM after 96 hrs by MTT assay; assay type: functional, cell-based
[9] = system: KETR3; experiment: Cytotoxicity against human Ketr3 cells at 10 uM after 96 hrs by MTT assay; assay type: functional, cell-based

CCO[C@]12[C@H]3[C@@H](OC(=O)c4ccccc4)[C@H](C[C@H]3[C@@]34C5[C@@H]1[C@H](O)[C@@H]3[C@@](COC)(CC[C@@H]4OC)CN5CC)[C@@H](OC)[C@@H]2O
inactive: Activity [1] | Activity [2] | inhibition [3] | Activity [4] | Activity [5] | inhibition [6] | Activity [7] | Activity [8] | Activity [9]

CCN1C[C@]2(COC)CC[C@H](OC)[C@]34C1[C@H]([C@H](O)[C@H]23)[C@]1(O)[C@H]2[C@@H](OC(=O)c3ccccc3)[C@H](C[C@H]24)[C@@H](OC)[C@@H]1O
inactive: Activity [1] | Activity [2] | inhibition [3] | Activity [4] | Activity [5] | inhibition [6] | Activity [7] | Activity [8] | Activity [9]

CCN1C[C@]2(COC)[C@H](O)C[C@H](OC)[C@]34C1[C@H]([C@H](OC)[C@H]23)[C@@]1(OC(C)=O)C[C@H](OC)[C@@]2(O)C[C@]4(O)[C@@H]1[C@H]2OC(=O)c1ccccc1
inactive: Activity [1] | Activity [2] | inhibition [3] | Activity [4] | Activity [5] | inhibition [6] | Activity [7] | Activity [8] | Activity [9]

COC[C@]12CN(C)C3[C@@H]4[C@H](OC)[C@H]1[C@@]3([C@@H](OC)C[C@H]2O)[C@@H]1C[C@@]2(O)[C@H](OC(=O)c3ccccc3)[C@@H]1[C@]4(O)[C@@H](OC(C)=O)[C@@H]2OC
inactive: Activity [1] | Activity [2] | inhibition [3] | Activity [4] | Activity [5] | inhibition [6] | Activity [7] | Activity [8] | Activity [9]

COC[C@]12CN(C)C3[C@@H]4[C@H](OC)[C@H]1[C@@]3([C@@H](OC)C[C@H]2OC(C)=O)[C@]1(O)C[C@@]2(O)[C@H](OC(=O)c3ccccc3)[C@@H]1[C@]4(OC)[C@@H](O)[C@@H]2OC
inactive: Activity [1] | Activity [2] | inhibition [3] | Activity [4] | Activity [5] | inhibition [6] | Activity [7] | Activity [8] | Activity [9]

COC[C@]12CN(C)C3[C@@H]4[C@H](OC)[C@H]1[C@@]3([C@@H](OC)C[C@H]2O)[C@]1(O)C[C@@]2(O)[C@H](OC(=O)c3ccccc3)[C@@H]1[C@]4(O)[C@@H](O)[C@@H]2OC
inactive: Activity [1] | Activity [2] | inhibition [3] | Activity [4] | Activity [5] | inhibition [6] | Activity [7] | Activity [8] | Activity [9]

C=C1C[C@@]23C[C@H]4[C@@H]5[C@@]6(C)C[C@H](OC(=O)CC)C[C@@]57[C@@H]2[C@H](O)[C@@H]1[C@H](OC(=O)[C@@H](C)CC)C3[C@H]7[N+]4(C)[C@H]6O
inactive: Activity [1] | Activity [2] | inhibition [3] | Activity [4] | Activity [5] | inhibition [6] | Activity [7] | Activity [8] | Activity [9]

COC[C@@]12CC[C@H](OC)[C@]34C([C@H]([C@H](OC)[C@H]13)[C@]1(OC(C)=O)[C@H]3[C@@H](OC(=O)c5ccccc5)[C@](O)(C[C@]34O)[C@@H](OC)[C@@H]1O)N(C)C2
inactive: Activity [1] | Activity [2] | inhibition [3] | Activity [4] | Activity [5] | inhibition [6] | Activity [7] | Activity [8] | Activity [9]
